Experimental findings from US10440955B2, “Methods comprising a biocidal polyamine” (Curza Global, LLC, priority 2013, dated 2019) are described below.

The subject of data set [1] is A. baumannii. Kind of data set: MIC, 96-well CAMHB, 10^5 to 10^2 CFU/mL in 24 hours. The settings on record: Acinetobacter baumannii, read-out: MIC (A. bumannii). It counts as cell-based, Acinetobacter baumannii. The protocol: (§1) To determine the MIC of polyamine compounds, the protocol described herein was used.
(§2) In brief, a 0.5 McFarland of each bacterial isolate was made. A 0.5 McFarland is a measure of turbidity in a liquid sample that contains approximately 1×10^∧8 CFU/mL. The 0.5 McFarland standard was diluted in cation adjusted Mueller Hinton Broth (CAMHB), and 50 μL of broth were added to a well of a 96-well plate. In addition, 50 μL of CAMHB that contained a desired concentration of antimicrobial were also added to the well for a final volume of 100 μL and a final concentration of approximately 5×10^4 CFU/well (which equated to approximately 5×10^5 CFU/mL). Each well contained a desired amount of polyamine compound in order to experimentally determine the MIC. Each 96-well plate was incubated at 37° C. for 24 hours. The contents of each well were plated on tryptic soy agar (TSA). TSA plates were incubated for 37° C. for 24 hours after which the number of CFU were counted and used to calculate the CFU/mL that remained after exposure to varying concentrations of compound. This procedure was repeated n=8 times for each concentration of antimicrobial.
A 0.5 McFarland of A. baumannii is made. A 0.5 McFarland is a measure of turbidity in a liquid sample that contains approximately 7.5×10^7 CFU/mL. The 0.5 McFarland standard is diluted in CAMHB and 50 μL of broth is added to a well of a 96-well plate. In addition, 50 μL of CAMHB that contains a desired concentration of antimicrobial is added to the well for a final volume of 100 μL and a final concentration of approximately 5×10^4 CFU/well (which equates to approximately 5×10^5 CFU/mL). Each well contains a desired amount of CZ compound in order to experimentally determine the MIC. Each 96-well plate is incubated at 37° C. for 24 hours. The contents of each well is plated on tryptic soy agar (TSA). TSA plates is incubated at 37° C. for 24 hours after which the number of CFUs is counted and used to calculate the CFU/mL that remain after exposure to varying concentrations of compound. This procedure is repeated n=8 times for each concentration of antimicrobial. […]

The subject of data set [2] is MRSA. The description is as above. It is filed as cell-based, Staphylococcus aureus. The settings on record: Staphylococcus aureus, MRSA, read-out: MIC (MRSA). The procedure:
as §1
as §2, with “antimicrobial. […]” for “antimicrobial.”

Data set [3] relates to P. aeruginosa. The data set is described as above. It is filed as cell-based, Pseudomonas aeruginosa. The note with it: for MIC: Pseudomonas aeruginosa. The protocol: as §1, §2
For data set [4], the system named is L-929 cells (ATCC CCL-1). Nature of the data set: Minimal Essential Media (MEM) Elution cytotoxicity test. It is filed as cell-based. The protocol:
Summary: The Minimal Essential Media (MEM) Elution test was designed to determine the cytotoxicity of extractable substances. The test article was added to cell monolayers and incubated. The cell monolayers were examined and scored based on the degree of cellular destruction.
Acceptance Criteria: The United States Pharmacopeia & National Formulary (USP <87>) states that the test article meets the requirements, or receives a passing score (Pass) if the reactivity grade is not greater than grade 2 or a mild reactivity.
Acceptance criteria were based upon the negative and media controls receiving “0” reactivity grades and positive controls receiving a 3-4 reactivity grades (moderate to severe).
The cell monolayers were examined microscopically. The wells were scored as to the degree of discernable morphological cytotoxicity on a relative scale of 0 to 4:
The results from the three wells were averaged to give a final cytotoxicity score.
[…] This initial concentration was then diluted 1: 2, 1:4, 1:8, and 1:16. Multiple well cell culture plates were seeded with a verified quantity of industry standard L-929 cells (ATCC CCL-1) and incubated until approximately 80% confluent. The test articles and control extracts were added to the cell monolayers in triplicate. The cells were incubated at 37±1° C. with 5±1% CO2 for 48±3 hours.

The mark [5] stands for this setting: Table 5, read-out: MIC (P. aeruginosa).
Where [6] appears, read: Table 11A, dilution 1:2 of 25 μg/mL.
The mark [7] stands for this setting: Table 11A, dilution 1:4 of 25 μg/mL.
Where [8] appears, read: Table 11A, dilution 1:8 of 25 μg/mL.
Where [9] appears, read: Table 11A, dilution 1:16 of 25 μg/mL.
Setting [10] is: Table 10A, dilution 1:2 of 25 μg/mL.
Setting [11] is: Table 10A, dilution 1:4 of 25 μg/mL.
Where [12] appears, read: Table 10A, dilution 1:8 of 25 μg/mL.
Where [13] appears, read: Table 10A, dilution 1:16 of 25 μg/mL.

Counter-ions that a name gives are not always drawn. Like-named read-outs stand apart in the source and are kept apart here. Some results are limits rather than exact numbers.

In the case of `Cc1ccccc1-c1cc(CNCCCNCCCN)cc(CNCCCNCCCN)c1` [CZ-63, N^1,N^1′-((2′-methyl-[1,1′-biphenyl]-3,5-diyl)bis(methylene))bis(N^3-(3-aminopropyl)propane-1,3-diamine), hydrochloride salt], in data set [1], the MIC was less than 50 µM.
For `NCCCNCCCNCCCNCc1cc(CNCCCNCCCNCCCN)cc(-c2ccccc2)c1` [CZ-73, N^1,N^1′-([1,1′-biphenyl]-3,5-diylbis(methylene))bis(N^3-(3-((3-aminopropyl)amino)propyl)propane-1,3-diamine), hydrochloride salt], the MIC in data set [1] lay within 50 to 100 µM.
On to `NCCCNCCCNCc1cc(CNCCCNCCCN)cc(-c2ccc3c(c2)OCO3)c1` [CZ-61, N^1,N^1′-((5-(benzo[d][1,3]dioxol-5-yl)-1,3-phenylene)bis(methylene))bis(N^3-(3-ammoniopropyl)propane-1,3-diaminium) chloride], for which, in data set [1], the MIC was less than 50 µM.
For the molecule `CCCCCCCCNCCCNCCCNCc1cc(CNCCCNCCCNCCCCCCCC)cc(-c2ccccc2)c1` [CZ-92, N^1,N^1′-([1,1′-biphenyl]-3,5-diylbis(methylene))bis(N^3-(3-(octylamino)propyl)-propane-1,3-diamine)], the MIC in data set [2] (Table 5) and in data set [3] (setting [5]) was less than 50 µM in each case. For the same molecule, the “Results Pass/Fail” value was “Fail (a numerical grade greater than 2 is considered a cytotoxic effect, or a failing score (Fail))” in data set [4] (Table 11A, 25 μg/mL); “Fail (a numerical grade greater than 2 is considered a cytotoxic effect, or a failing score (Fail))” in data set [4] (setting [6]); “Fail (a numerical grade greater than 2 is considered a cytotoxic effect, or a failing score (Fail))” in data set [4] (setting [7]); “Fail (a numerical grade greater than 2 is considered a cytotoxic effect, or a failing score (Fail))” in data set [4] (setting [8]); “Pass (receives a passing score (Pass) if the reactivity grade is not greater than grade 2 or a mild reactivity)” in data set [4] (setting [9]).
On to `NCCCCCCCCCCCCNCc1cccc(CNCCCCCCCCCCCCN)c1` [CZ-21, N^1,N^1′-(1,3-phenylenebis(methylene))bis(dodecane-1,12-diamine), hydrochloride salt], for which the MIC in data set [2] is less than 50 µM; in data set [1], greater than 100 µM.
In the case of `CC(C)CNCCCNCCCNCc1cccc(-c2cc(CNCCCNCCCNCC(C)C)cc(CNCCCNCCCNCC(C)C)c2)c1` [CZ-99, N^1,N^1′,N^1″-([1,1′-biphenyl]-3,3′,5-triyltris(methylene))tris(N^3-(3-(isobutylamino)propyl)propane-1,3-diamine)], the MIC in data set [2] (Table 5) was less than 50 µM. The “MIC (P. aeruginosa)” value in data set [3] (Table 5) is “++ to +++”. Further, the “Results Pass/Fail” value in data set [4] (Table 11A, 25 μg/mL) is listed as “Pass (receives a passing score (Pass) if the reactivity grade is not greater than grade 2 or a mild reactivity)”; in data set [4] (setting [6]), “Pass (receives a passing score (Pass) if the reactivity grade is not greater than grade 2 or a mild reactivity)”; in data set [4] (setting [7]), “Pass (receives a passing score (Pass) if the reactivity grade is not greater than grade 2 or a mild reactivity)”; in data set [4] (setting [8]), “Pass (receives a passing score (Pass) if the reactivity grade is not greater than grade 2 or a mild reactivity)”; in data set [4] (setting [9]) it was “Pass (receives a passing score (Pass) if the reactivity grade is not greater than grade 2 or a mild reactivity)”.
Regarding `NCCCNCCCNCc1ccc(-c2cc(CNCCCNCCCN)cc(CNCCCNCCCN)c2)cc1` [CZ-65, N^1,N^1′,N^1″-([1,1′-biphenyl]-3,4′,5-triyltris(methylene))tris(N^3-(3-aminopropyl)propane-1,3-diamine), hydrochloride salt], the MIC in data set [1] is less than 50 µM. Also, the “Results Pass/Fail” value in data set [4] (Table 10A, 25 μg/mL) is on record as “Fail (a numerical grade greater than 2 is considered a cytotoxic effect, or a failing score (Fail))”; in data set [4] (setting [10]), “Fail (a numerical grade greater than 2 is considered a cytotoxic effect, or a failing score (Fail))”; in data set [4] (setting [11]) it was “Pass (receives a passing score (Pass) if the reactivity grade is not greater than grade 2 or a mild reactivity)”; in data set [4] (setting [12]), “Pass (receives a passing score (Pass) if the reactivity grade is not greater than grade 2 or a mild reactivity)”; in data set [4] (setting [13]), “Pass (receives a passing score (Pass) if the reactivity grade is not greater than grade 2 or a mild reactivity)”.
On to `CCCCNCCCNCCCNCc1cc(CNCCCNCCCNCCCC)cc(-c2ccccc2)c1` [CZ-83, N^1,N^1′-([1,1′-biphenyl]-3,5-diylbis(methylene))bis(N^3-(3-(butylamino)propyl)propane-1,3-diamine), hydrochloride salt], for which the MIC in data set [2] is less than 50 µM; in data set [3] (read-out: MIC (P. aeruginosa), Table 5) it was less than 50 µM; in data set [1], less than 50 µM.
With `CCCCCCCCNCCCNCCCNCc1cc(CNCCCNCCCNCCCCCCCC)cc(OCC2CCCCC2)c1` [CZ-103, N^1,N^1′-((5-(cyclohexylmethoxy)-1,3-phenylene)bis(methylene))bis(N^3-(3-(octylamino)propyl)propane-1,3-diamine)], the MIC in data set [2] (Table 5), in data set [3] (setting [5]) and in data set [1] (Table 5) was less than 50 µM throughout.
On to `NCCCNCCCNCc1cc(CNCCCNCCCN)cc(CNCCCNCCCN)c1` [CZ-55], for which the results for the minimum inhibitory concentration (MIC) in data set [2] (Table 5), in data set [3] (setting [5]) and in data set [1] (Table 5) were less than 50 µM, less than 50 µM and greater than 100 µM, respectively.
On to `NCCCNCCCNCc1cc(CNCCCNCCCN)cc(-c2c(CNCCCNCCCN)cccc2CNCCCNCCCN)c1` [CZ-60], for which the MIC in data set [2] (Table 5) was less than 50 µM; in data set [3] (setting [5]), greater than 100 µM; in data set [1] (Table 5) it was greater than 100 µM.
With `NCCCNCCCNCc1cccc(-c2cc(CNCCCNCCCN)cc(CNCCCNCCCN)c2)c1` [CZ-62, N^1,N^1′,N^1″-([1,1′-biphenyl]-3,3′,5-triyltris(methylene))tris(N^3-(3-aminopropyl)propane-1,3-diamine), hydrochloride salt], in data set [1], the MIC was less than 50 µM. For the same molecule, the “Results Pass/Fail” value is reported as “Fail (a numerical grade greater than 2 is considered a cytotoxic effect, or a failing score (Fail))” in data set [4] (Table 10A, 25 μg/mL); “Fail (a numerical grade greater than 2 is considered a cytotoxic effect, or a failing score (Fail))” in data set [4] (setting [10]); “Fail (a numerical grade greater than 2 is considered a cytotoxic effect, or a failing score (Fail))” in data set [4] (setting [11]); “Pass (receives a passing score (Pass) if the reactivity grade is not greater than grade 2 or a mild reactivity)” in data set [4] (setting [12]); “Pass (receives a passing score (Pass) if the reactivity grade is not greater than grade 2 or a mild reactivity)” in data set [4] (setting [13]).
